Assays:
[1] = tested on: genetisch hypertonen Ratten; test: Antihypertensive effect: systolic blood pressure (tail cuff) in conscious genetically hypertensive rats, oral dosing once daily on four consecutive days; format: in vivo, Ratten (Stamm SHR/N/Ibm/Bm); conditions: for Th.I. Fusarsäure = 1: normalised to Th.W. Fusarsäure = 1; for Th.W. (Therapeutische Wirksamkeit): mean of quotient over the doses of Table I
Description: Zur Bestimmung der äntihypertensiven Wirkung werden die unten aufgeführten Verbindungen in den angegebenen Dosen an vier aufeinander folgenden Tagen an je 6 Ratten (Stamm SHR/N/Ibm/Bm, ♂, 250-350 g) mit genetisch bedingtem Hochdruck (RR > 180 mmHg) täglich einmal mittels Schlundsonde verabfolgt. Die Messung des Blutdrucks erfolgt jeweils 2, 6 und gegebenenfalls 24 Stunden nach Substanzgabe.
Die Blutdruckmessung wird in einer Wärmekammer bei 36°C vorgenommen, um eine bessere Durchblutung der Schwanzarterie zu erreichen. Hierzu werden die Tiere in perforierte Lochblechkäfige verbracht und 20 - 40 Min. nach Beginn der Aufwärmung gemessen. Zur Messung des systolischen arteriellen Drucks wird eine ringförmige Manschette mit aufblasbarer Gummimembran zur Unterbindung der Durchblutung und ein ringförmiger Piezökristallaufnehmer zur Erfassung der Pulswellen auf den Schwanz aufgeschoben. Nach erfolgter Unterbindung des Blutstroms in der Schwanzarterie wird der Manschettendruck kontinuierlich reduziert. […] Pulssignale und Druckverlauf werden zur Auswertung graphisch aufgezeichnet.
Zur Gewöhnung an den Meßvorgang werden die Tiere vor Substanzprüfung 14 Tage traniniert. In der zweiten Trainingswoche werden Blutdruck-Vorwerte erhoben. Tiergruppen, die Substanz erhälten, werden gegen eine Kontrollgruppe geprüft.

weiblichen NMRI-Mäusen = test: Oral toxicity (LD50) in mice, 14 days observation; format: in vivo; conditions: N=5/dose
From the text: Die Toxizitätsuntersuchungen werden an weiblichen NMRI-Mäusen (Körpergewicht 22 - 26 g) durchgeführt. Die Tiere (5 Tiere pro Dosis) erhalten Futter und Wasser ad libitum. Verschiedene Dosen der Substanzen werden oral verabreicht. Die Beobachtungsdauer beträgt 14 Tage. Die LD50, d.h. die Dosis bei der 50% der Tiere sterben, wird aus der Dosiswirkungskurve graphisch ermittelt.

Structure (SMILES): COc1ccccc1N1CCN(CCCNC(=O)c2ccc(-c3ccccc3)cn2)CC1 [lfd. Nr. 5, 5-Phenylpyridin-2-carbonsäure-(3-[4-(2-methoxyphenyl)-piperazinyl-1]-propyl)-amid]
- BP (%-Änderungen) ([1]; 6,4 mg/kg p.o., day 1, 2h): -19%
- BP (%-Änderungen) ([1]; 6,4 mg/kg p.o., day 1, 6h): -14%
- BP (%-Änderungen) ([1]; 6,4 mg/kg p.o., day 1, 24h): -20%
- BP (%-Änderungen) ([1]; 6,4 mg/kg p.o., day 2, 6h): -12%
- BP (%-Änderungen) ([1]; 6,4 mg/kg p.o., day 3, 6h): -11%
- BP (%-Änderungen) ([1]; 6,4 mg/kg p.o., day 3, 24h): -5%
- BP (%-Änderungen) ([1]; 6,4 mg/kg p.o., day 4, 2h): -16%
- BP (%-Änderungen) ([1]; 6,4 mg/kg p.o., day 4, 6h): -24%
- BP (%-Änderungen) ([1]; 25,6 mg/kg p.o., day 1, 2h): -26%
- BP (%-Änderungen) ([1]; 25,6 mg/kg p.o., day 1, 6h): -20%
- BP (%-Änderungen) ([1]; 25,6 mg/kg p.o., day 1, 24h): -14%
- BP (%-Änderungen) ([1]; 25,6 mg/kg p.o., day 2, 6h): -12%
- BP (%-Änderungen) ([1]; 25,6 mg/kg p.o., day 3, 6h): -12%
- BP (%-Änderungen) ([1]; 25,6 mg/kg p.o., day 3, 24h): -3%
- BP (%-Änderungen) ([1]; 25,6 mg/kg p.o., day 4, 2h): -12%
- BP (%-Änderungen) ([1]; 25,6 mg/kg p.o., day 4, 6h): -22%
- Th.I. Fusarsäure = 1 ([1]; day 1 (2h, 6h and 24h Th.W. averaged)): 70,6
- Th.W. (Therapeutische Wirksamkeit) ([1]; day 1, 2h): -89,8 %-Änderung BP / µmol/kg x 100
- Th.W. (Therapeutische Wirksamkeit) ([1]; day 1, 6h): -66,9 %-Änderung BP / µmol/kg x 100
- Th.W. (Therapeutische Wirksamkeit) ([1]; day 1, 24h): -82,7 %-Änderung BP / µmol/kg x 100
- Th.W. (Therapeutische Wirksamkeit) ([1]; day 2, 6h): -52,8 %-Änderung BP / µmol/kg x 100
- Th.I. Fusarsäure = 1 ([1]; day 3 (6h and 24h Th.W. averaged)): 21,1
- Th.W. (Therapeutische Wirksamkeit) ([1]; day 3, 6h): -49,3 %-Änderung BP / µmol/kg x 100
- Th.W. (Therapeutische Wirksamkeit) ([1]; day 3, 24h): -20,3 %-Änderung BP / µmol/kg x 100
- Th.I. Fusarsäure = 1 ([1]; day 4 (2h and 6h Th.W. averaged)): 14,7
- Th.W. (Therapeutische Wirksamkeit) ([1]; day 4, 2h): -66,9 %-Änderung BP / µmol/kg x 100
- Th.W. (Therapeutische Wirksamkeit) ([1]; day 4, 6h): -103,9 %-Änderung BP / µmol/kg x 100
- LD50 p.o. (weiblichen NMRI-Mäusen): ≫ 1000 mg/kg

From patent EP0123700A1, “Substituted picolinic acids, processes for their preparation, their use, and pharmaceutical preparations containing them” (Byk Gulden Lomberg Chemische Fabrik GmbH, priority 1983, dated 1984)
